In series [1] the test system is enzymatic degradation from estradiol to estrone in human skin. The experiment in a line: inhibition of the estradiol metabolism in human skin. To be noted: for % Estradiol Metabolized (E1 *100/E1 + E2): 10% PPG; for Inhibition %: 10% PPG versus control; for Estradiol / Estrone: saturated estradiol in saline + 10% PPG, human skin without stratum corneum, n=3; for % estrone formed (percent of estradiol conversion to estrone): n = 4.

A short description of series [2]: in vitro permeation through mouse skin in diffusion chamber. Type of series: in vitro ADME, Swiss mice. The note with it: n = 4. The text has this:
[…]. The techniques of this permeation studies is described afterwards.
Furthermore, "in vitro" permeation experiments with abdominal mouse skin and human skin were made using the diffusion chamber that is schematically shown in longitudinal section in FIG. 1.
The diffusion chamber illustrated in FIG. 1 comprises a body having front and rear tubular sections 1 and 2 having respective annular end flanges 3 and 4 by which the sections 1 and 2 are joined together. A sample of skin 5, with attached estradiol delivery device D to be tested facing the rear tubular section 2, is clamped between the flanges 3 and 4 by means of a pinch clamp 6.
The tubular section 1 has an internal chamber 7 with an opening 8 furnished with a glass stopper 9. The tubular section 1 has also a jacket 10 through which warm water can be circulated to maintain the contents of the chamber 7 at the desired temperature. The chamber 7 contains a magnetic bar stirrer 11 which is rotatable by means of a magnetic field applied externally means (not shown) to enable the contents of the chamber 7 to be stirred.
The tubular section 2 has a chamber 12 with an opening 13 furnished with a glass stopper 14.
In the assay, the skin of Swiss mice, shaved 72 hours before the experiments, was employed. Also used was human skin obtained from human skin samples (remnants of plastic surgery) which have been eliminated the adipose tissue by scissors, and then was cut to 500 microns by a dermatome.
[…]. Each experiment was started by loading chamber 7 with 5.5 ml of a receptor solution of sodium lauryl sulfate (0.5%), starting the stirrer 11 and taking samples at pre determined periods of time and the subsequent determination of permeated estradiol (by HPLC).

Series [3] is described as follows: saturation of estradiol in the coating layer. To be noted: bad appearance, diminished adhesive properties.
Series [4] deals with 17-β-hydroxysteroid dehydrogenase. In words: purified 17-β-hydroxysteroid dehydrogenase assay, absorbance at 340nm (NADH). Type of series: biochemical. To be noted: propylene glycol 10% in volume. As to the method: Another experimentation in this field was carried out using purified 17-β-hydroxysteroid dehydrogenase, 17-β-estradiol as a substrate and NAD^+ as a cofactor in the control tubes, in sample tubes 10% in volume of propyleneglycol was added. The continuous monitoring of the increase in the absorbance at 340nm generated by the appearance of NADH was the method used. […] Therefore the inhibition of the conversion is no mediated by a denaturalization process of the enzyme, therefore we postulated that the process of inhibition was governed by competition for NAD^+.

Each structure is given as a SMILES string.

Take `C[C@]12CC[C@@H]3c4ccc(O)cc4CC[C@H]3[C@@H]1CC[C@@H]2O` [Estradiol, estradiol]: the “transformation of estradiol in contact with the enzymes of the skin” value in series [1] (permeation through skin) is given as “enzymatically oxidazed to estrone”. The “Flux through mouse skin at 24h” value in series [2] (estradiol concentration 1 wt % in coating layer) is given as 1.8 ± 0.29 μg/cm^2 *h; in series [2] (estradiol concentration 1.5 wt % in coating layer), 2.2 ± 0.25 μg/cm^2 *h; in series [2] (estradiol concentration 1.75 wt % in coating layer), 2.8 ± 0.33 μg/cm^2 *h; in series [2] (estradiol concentration 1.8 wt % in coating layer), 3.28 ± 0.41 μg/cm^2 *h; in series [2] (estradiol concentration 2 wt % in coating layer), 3.31 ± 0.45 μg/cm^2 *h; in series [2] (estradiol concentration 2.5 wt % in coating layer), 3.39 ± 0.37 μg/cm^2 *h. The “concentration above which estradiol precipitates in the polymeric matrix” value in series [3] was “above 2.1 wt %”.
Regarding `CC(O)CO` (centres unmarked) [Propylene glycol, propylene glycol], the “% Estradiol Metabolized (E1 *100/E1 + E2)” value in series [1] (Exp. 1) is on record as 7.4%; in series [1] (Exp. 2), 6.55%. The Inhibition % in series [1] (Exp. 1) was 66.0%; in series [1] (Exp. 2) it was 57.2%. Further, the Estradiol is 3.51 nmol/mL in series [1] (Exp. 1) and 2.71 nmol/mL in series [1] (Exp. 2). Further, the Estrone was determined as 0.27 nmol/mL in series [1] (Exp. 1) and 0.19 nmol/mL in series [1] (Exp. 2). Further, in series [1] (FIG. 4C), the “propyleneglycol concentration at which enzymatic conversion of estradiol to estrone is minimized” value stood at 10 % wt. In addition, the “% estrone formed (percent of estradiol conversion to estrone)” value in series [1] (PG 0.25%) turned out to be 37.9%; in series [1] (PG 0.5%), 33.6%; in series [1] (PG 1.5%) it was 26.8%; in series [1] (PG 3%), 20.6%; in series [1] (PG 5%), 16.1%; in series [1] (PG 10%) it was 9.2%. In addition, the “inhibition of enzymatic degradation of estradiol to estrone” value in series [1] (tests conducted by the applicant) is “inhibits the enzymatic mechanism that causes degradation of estradiol to estrone”. Also, the “increase in the absorbance at 340nm (NADH)” value (from here on “increase in the absorbance”) in series [4] (0 min) was found to be 0; in series [4] (1 min), 15; in series [4] (2 min), 30; in series [4] (3 min), 47; in series [4] (4 min), 60; in series [4] (5 min), 72. Besides, the “increase in the absorbance” value is given as 95 in series [4] (6 min); 105 in series [4] (7 min); 113 in series [4] (8 min); 120 in series [4] (9 min); 125 in series [4] (10 min); 128 in series [4] (11 min). In series [4] (12 min), the “increase in the absorbance” value was determined as 130. Further, the “effect on purified enzyme activity versus control” value in series [4] (17-β-estradiol substrate, NAD+ cofactor) is listed as “No differences”.

The values are drawn from patent US5705185A, “Transdermal delivery of estradiol and process for manufacturing said device” (priority 1996, dated 1998).
